Measurements published in publication PMC7854751, “Estimation of radiation dose from ingested tritium in humans by administration of deuterium-labelled compounds and food” (Scientific Reports, 2021).
Values joined by “and” are separate entries in the source; they are usually repeats but may differ in a detail not shown here. Equal values may be shown once. Read-outs that look alike come from different tables or passages of the source. Marks after values point to notes of the source that are not given here.

Tests used:
[1] = D/H ratios in urine after oral administration of D2O, HDO metabolic model fit; format: in vivo, human; conditions: for mean half-life for the FWD compartment of the HDO models: mean and standard deviation; for Rr, recovery ratio to the administered deuterium / k1, transfer rate from OBD compartment to FWD compartment / k2, transfer rate from FWD compartment to OBD compartment / ka, transfer rate from DT compartment to FWD compartment / ke, excretion rate from FWD compartment: once orally
Protocol: (§1) The total number of volunteers was 42, although some dropped out of the experiment, for various reasons. The data from these volunteers were eliminated. This study lasted 4 years; administration experiments were conducted from September to January, and each volunteer participated in one of the 4 years. […]
(§2) Urine and breath samples were periodically collected from days − 7 to 119, where the first day of the administration was defined as day 0. Urine samples were collected daily, when the volunteers rose in the morning, until day 28, then every two or three days until day 119. Additional samples were collected frequently, after administration. Urine samples were collected at every urination until bedtime, on days of administration. Breath samples were collected immediately prior to the administration, every 20 min from 12:30 to 17:10, and then hourly from 18:00 until bedtime.
(§3) Urine was distilled, and the condensed water was collected for the measurement of D/H ratio, using a mass spectrometer (Iso Prime 100; Elementar, Langenselbold, Germany). Breath samples were collected using an airtight bag. The samples were analysed within 3 days. After purifying the CO2 in the breath using a gas chromatograph (MAT GC; Thermo Electron, Waltham, MA, USA), the ^13C/^12C ratio was measured using a mass spectrometer (Dalta V Advantage; Thermo Electron, Waltham, MA, USA).
(§4) The increments were calculated of D/H and ^13C/^12C ratios above the background values measured for the samples before administration. The ratios were normalised to the same dosage (1 g D or ^13C per 70 kg body weight). When the D/H or ^13C/^12C ratios were below the limits (90% upper confidence limits of the background fluctuation), to cut off the data and any subsequent data were discarded.
(§5) A metabolic model was developed, for each volunteer. For volunteers in the glucose, alanine, palmitic acid, and soybean groups, the model structure of the OBD shown in Fig. 1 was adopted, while for volunteers in the D2O group, the model structure for HDO was adopted. For each model, parameters were determined using the least squares method, using Microsoft Excel version 2007. The detailed procedures have been described previously. […]

[2] = design: method as in PMID 21947005; conditions: once orally; individual volunteer; presumed value, no clear second component; from mean residence time of carbon in adipose tissue ref 41; cited from earlier work
[3] = D/H ratios in urine after oral administration of D-labelled compounds and soybean, OBD metabolic model fit; format: in vivo, human
Protocol: as §1
All D-labelled and ^13C-labelled compounds were purchased from Cambridge Isotopes, Inc. (Tewksbury). In each D-labelled molecule, hydrogen bound to carbon was uniformly replaced by D. Such D is not exchangeable to hydrogen in free body water after administration until it is metabolised to HDO, and is called non-exchangeable OBD (Nx-OBD). Exchangeable hydrogen, which was not bound to carbon, such as hydroxyl group hydrogen, was not replaced by D. In each ^13C-labelled compound, ^13C was uniformly labelled.
The D-labelled soybean was harvested three times. The harvested soybeans were boiled, freeze-dried, and then homogenised. The soy powder product was orally administered. To measure the D/H ratio, the soy powder was first immersed in drinking water, to replace exchangeable OBD (Ex-OBD), which was not bound to carbon. After the second freeze-drying process, the D/H ratio was measured using a mass spectrometer (Iso Prime 100; Elementar, Langenselbold, Germany). Buried tritium is defined as the tritium in a large biomolecule that remains in the molecule after rinsing samples with tritium-free water, despite its exchangeable position in the molecule. A fraction of buried deuterium was considered to remain in soybean powder. […] Therefore, we considered that effect of the amount of buried deuterium on the measured D/H ratio of soy powder was negligible. The hydrogen content of the soybean powders (gH/gDW) was measured using a gas chromatograph (NCH-22F; Sumika Chemical Analysis Service, Oosaka, Japan). The OBD content of the soybean powders (gOBD/gDW) were calculated from their D/H ratio and hydrogen content, and are summarised in Table 7.
as §2, §3, §4, §5

[4] = design: method as in PMID 32424291; conditions: cited from earlier work; for d1, ratio of organic compounds to inorganic compounds immediately after administration: 13C-labelled compound experiments, mean ± standard deviation ref 31
[5] = intravenous injection ref 28; cited from earlier work

For `[2H]O[2H]` [D2O], the “mean half-life for the FWD compartment of the HDO models” value (“mean half-life for the FWD compartment” below) ([1]; combined group of volunteers) was 10 ± 3 days, the “mean half-life for the FWD compartment” value ([1]; females (n = 6)) was 10 ± 3 days and the “mean half-life for the FWD compartment” value ([1]; males (n = 3)) was 10 ± 2 days. The “Rr, recovery ratio to the administered deuterium” value (from here on “Rr, recovery ratio”) ([1]; all volunteers average) was 0.93, the “k1, transfer rate from OBD compartment to FWD compartment” value (“k1, transfer rate from OBD compartment” for short) ([1]; all volunteers average) was 0.010 day⁻¹ and the “k2, transfer rate from FWD compartment to OBD compartment” value (“k2, transfer rate from FWD compartment” for short) ([1]; all volunteers average) was 0.010 day⁻¹. The “ka, transfer rate from DT compartment to FWD compartment” value (“ka, transfer rate from DT compartment” for short) ([1]; all volunteers average) was 26 day⁻¹, the “ke, excretion rate from FWD compartment” value ([1]; all volunteers average) was 0.071 day⁻¹ and the “Rr, recovery ratio” value ([1]; female average) was 0.93. The “k1, transfer rate from OBD compartment” value ([1]; female average) was 0.011 day⁻¹, the “k2, transfer rate from FWD compartment” value ([1]; female average) was 0.013 day⁻¹ and the “ka, transfer rate from DT compartment” value ([1]; female average) was 28 day⁻¹. The “ke, excretion rate from FWD compartment” value ([1]; female average) was 0.071 day⁻¹, the “Rr, recovery ratio” value ([1]; individual female volunteers) was 1.0 and 0.99 and 0.70 and 0.97 (2×) and 0.93 and the “k1, transfer rate from OBD compartment” value ([1]; individual female volunteers) was 0.0067 day⁻¹ and 0.0074 day⁻¹ and 0.019 day⁻¹. The “k2, transfer rate from FWD compartment” value ([1]; individual female volunteers) was 0.016 day⁻¹ and 0.010 day⁻¹, the “ka, transfer rate from DT compartment” value ([1]; individual female volunteers) was 8.9 day⁻¹ and 23 day⁻¹ and 92 day⁻¹ and 14 day⁻¹ and 6.4 day⁻¹ and 21 day⁻¹ and the “ke, excretion rate from FWD compartment” value ([1]; individual female volunteers) was 0.056 day⁻¹ and 0.098 day⁻¹ and 0.081 day⁻¹ and 0.043 day⁻¹ and 0.078 day⁻¹ and 0.072 day⁻¹. For the same compound, the “Rr, recovery ratio” value ([1]; individual male volunteers) was 0.91 and 1.0 and 0.92, the “k1, transfer rate from OBD compartment” value ([1]; individual male volunteers) was 0.0091 day⁻¹ and 0.0083 day⁻¹ and the “k2, transfer rate from FWD compartment” value ([1]; individual male volunteers) was 0.0092 day⁻¹ and 0.0065 day⁻¹. For the same compound, the “ka, transfer rate from DT compartment” value ([1]; individual male volunteers) was 39 day⁻¹ and 8.6 day⁻¹ and 21 day⁻¹, the “ke, excretion rate from FWD compartment” value ([1]; individual male volunteers) was 0.059 day⁻¹ and 0.063 day⁻¹ and 0.090 day⁻¹ and the “Rr, recovery ratio” value ([1]; male average) was 0.94. For the same compound, the “k1, transfer rate from OBD compartment” value ([1]; male average) was 0.0087 day⁻¹, the “k2, transfer rate from FWD compartment” value ([1]; male average) was 0.0079 day⁻¹ and the “ka, transfer rate from DT compartment” value ([1]; male average) was 23 day⁻¹. The “ke, excretion rate from FWD compartment” value ([1]; male average) was 0.071 day⁻¹ and the “k2, transfer rate from FWD compartment” value [2] was 0.0017* d^−1.

For `OC[C@H]1OC(O)[C@H](O)[C@@H](O)[C@@H]1O` (stereo partly drawn) [D-labelled glucose], the “ke, excretion rate from FWD compartment” value ([3]; once orally, all volunteers average) was 0.073 day⁻¹, the “ke, excretion rate from FWD compartment” value ([3]; once orally, female average) was 0.067 day⁻¹ and the “ke, excretion rate from FWD compartment” value ([3]; once orally, individual female volunteers) was 0.072 d^−1 (2×) and 0.081 d^−1 and 0.057 d^−1 and 0.073 d^−1 and 0.049 d^−1. The “ke, excretion rate from FWD compartment” value ([3]; once orally, individual male volunteers) was 0.085 d^−1 (2×) and 0.097 d^−1 and 0.050 d^−1 and 0.078 d^−1 and the “ke, excretion rate from FWD compartment” value ([3]; once orally, male average) was 0.079 day⁻¹.

With `CCCCCCCCCCCCCCCC(=O)O` [D-labelled palmitic acid] the “ke, excretion rate from FWD compartment” value ([3]; palmitic acid group, orally once daily for four successive days, all volunteers average) was 0.070 day⁻¹, the “ke, excretion rate from FWD compartment” value ([3]; palmitic acid group, orally once daily for four successive days, female average) was 0.083 day⁻¹ and the “ke, excretion rate from FWD compartment” value ([3]; palmitic acid group, orally once daily for four successive days, individual female volunteers) was 0.059 day⁻¹ and 0.064 day⁻¹ and 0.11 day⁻¹ and 0.099 day⁻¹. For the same compound, the “ke, excretion rate from FWD compartment” value ([3]; palmitic acid group, orally once daily for four successive days, individual male volunteers) was 0.059 day⁻¹ and 0.055 day⁻¹ and 0.078 day⁻¹ and 0.063 day⁻¹ and 0.040 day⁻¹ and the “ke, excretion rate from FWD compartment” value ([3]; palmitic acid group, orally once daily for four successive days, male average) was 0.059 day⁻¹.

In the case of `NCC(=O)O` [^13C-labelled glycine], the “d1, ratio of organic compounds to inorganic compounds immediately after administration” value (“d1, ratio of organic compounds” below) [4] is listed as 0.29 ± 0.04.

In the case of `CCCCC/C=C\C/C=C\CCCCCCCC(=O)O` [^13C-labelled linoleic acid], the “d1, ratio of organic compounds” value [4] is listed as 0.29 ± 0.12 and the “reported ratio of unsaturated fatty acids (d1) by the 13C-labelled experiment” value [4] is listed as 29 ± 12%.

For `CCCCCCCC/C=C\CCCCCCCC(=O)O` [^13C-labelled oleic acid], the “d1, ratio of organic compounds” value [4] is given as 0.35 ± 0.11 and the “reported ratio of unsaturated fatty acids (d1) by the 13C-labelled experiment” value [4] is given as 35 ± 11%.

In the case of `N[C@@H](Cc1ccccc1)C(=O)O` [^13C-labelled phenylalanine], the “d1, ratio of organic compounds” value [4] is listed as 0.25 ± 0.04.

For `O=[14C]([O-])O.[Na+]` [^14C-bicarbonate], the “half-life of carbon dioxide” value [5] is given as 5 min.
